Measurements reported in patent US4939156A (priority 1987, dated 1990).
Values after ≈ are worked out from the molar mass of the structure shown.

Key:
[1] = system: Herpes simplex virus (HSV) Type 2 196 strain; assay: Antiviral activity, Virus No. 5 infested Vero cell; format: cell-based; settings: for IC50: 48 h, HSV Type 2, Vero cell, read-out: Inhibitory Concentration (IC50) which inhibited by 50% the denaturation of Virus No. 5 infested Vello cell; for Quotient of minimum denaturation concentration divided by IC50, Virus No. 5: figures in brackets, Vero cell, HSV Type 2
[2] = in vitro; settings: monkey, vero cells
[3] = system: human premyelocytic leukemia cells (HL-60); assay: 50% inhibition of propagation of undifferentiated human premyelocytic leukemia HL-60 cells; format: cell-based; settings: 144 h, 6 days incubation, read-out: Activity of test compound to inhibit by 50% the undifferentiated propagation of HL-60 cells (IC50)
Protocol: (§1) The human premyelocytic elukemia cells (HL-60 cell) are characterized by the ability to respond to pharmacological inducers of differentiation and can produce the normal granulocytes when they have been differentiated, as described in the "Blood" Vol. 54, No. 3, 713-733 (1979).
(§2) Thus, firstly the cell differentiation-inducing activity of the compound was assayed by the following procedure described in said "Blood". Namely, HL-60 cells were incubated by passing successively through RPMI 1640 media supplemented with 10% FCS (fetal calf serum), followed by adding the test compound at varying concentrations to aliquots of the culture of the HL-60 cells at the logarithmic phase of growth. The HL-60 cells thus incubated were further incubated in the presence of the test compound for 6 days and subsequently fixed to slide glasses. The fixed HL-60 cells were stained with May-Gruenwald-Giemsa's reagent and the morphology of the nuclei in the stained cells was examined to judge which of the cells has been differentiated into the normal granulocytes. Then, the number of the HL-60 cells which had propagated were counted.
As said "IC50 " concentration of the test compound was assumed such concentration of the test compound at which the counted number of the HL-60 cells having propagated was reduced by 50%, as compared to that counted in the control tests where the test compound was not used.

[4] = system: human premyelocytic leukemia cells (HL-60); assay: NBT-reducing ability (differentiation) of HL-60 cells after treatment with test compound; format: cell-based; settings: 0.1% NBT, 37° C., 20 minutes
Protocol: as §1, §2
Secondly, the another aliquot of the culture of the HL-60 cells which were incubated in the above procedure in the presence of the test compound at its evaluated "IC50 " concentration was centrifuged to collect the cells, which were then diluted with a volume of RPMI 1640 medium supplemented with 10% FCS, to provide a given concentration of the cells. Subsequently, the cells which were diluted with said medium were added and mixed with 0.1% of NBT and then incubated at 37° C. for 20 minutes. The number of the cells which stained black color owing to the involved reduction of NBT and which could be judged to have the ability to reduce NBT was counted.

[5] = system: Influenza virus A/PR/8/34 strain; assay: Antiviral activity, Virus No. 1 infested MDCK cell; format: cell-based; settings: for IC50: PR/8, MDCK, 48 h, read-out: Inhibitory Concentration (IC50) which inhibited by 50% the denaturation of Virus No. 1 infested MDCK cell; for Quotient of minimum denaturation concentration divided by IC50, Virus No. 1: figures in brackets, MDCK cell, Influenza virus, 2880 min
[6] = system: Newcastle disease virus (NDV) Miyadera strain; assay: microbe, parasite or virus in culture; format: cell-based; settings: for IC50: avian paramyxovirus 1, 48 h, read-out: Inhibitory Concentration (IC50) which inhibited by 50% the denaturation of Virus No. 2 infested HeLa-Y cell; for Quotient of minimum denaturation concentration divided by IC50, Virus No. 2: figures in brackets, HeLa-Y cell, NDV, 2880 min
[7] = system: vesicular stomatitis virus (VSV) New Jersey strain; assay: microbe, parasite or virus in culture; format: cell-based; settings: for IC50: Vesicular stomatitis virus, L929, 48 h, read-out: Inhibitory Concentration (IC50) which inhibited by 50% the denaturation of Virus No. 3 infested L-929 cell; for Quotient of minimum denaturation concentration divided by IC50, Virus No. 3: figures in brackets, L-929 cell, VSV, 2880 min
[8] = system: Vaccinia virus Lister strain; assay: organism not typed; format: cell-based; settings: for IC50: 48 h, read-out: Inhibitory Concentration (IC50) which inhibited by 50% the denaturation of Virus No. 4 infested HeLa-Y cell; for Quotient of minimum denaturation concentration divided by IC50, Virus No. 4: figures in brackets, HeLa-Y cell, Vaccinia virus, 2880 min
[9] = in vitro; settings: human, hela-y cells
[10] = in vitro; settings: mouse, l-929 cells
[11] = in vitro; settings: dog, mdck
[12] = system: mice; assay: Acute toxicity in mice given i.p.; format: in vivo; settings: twice a day, 4 days, counted at 5th day
Protocol: For estimation of toxicity of the new compounds of this invention for mammalian animals, acute toxicity of the TI-27 Substance of Example 1 as a representative example was tested by intraperitoneal administration of a suspension of 25 mg/ml of TI-27 substance in a 0.5% aqueous solution of carboxymethyl cellulose (CMC) to mice (five in each group). The TI-27 substance was given to mice twice a day at a unit dosage of 5 mg, 1.25 mg, 0.313 mg, 0.078 mg or 0.02 mg per mouse for consecutive 4 days, totally 8 times. The number of the surviving mice which tolerated the administration of TI-27 Substance was counted at the 5th day of the tests.

Structure (SMILES) | IC50 [1] [µg/mL] | Quotient of minimum denaturation concentration divided by IC50, Virus No. 5 [1] | MCC at 48 h [2] [µg/mL] | IC50 [3] [µg/mL] | Percent of the number of the cells showing the NBT-reducing ability after treatment with test compound at IC50 concentration [4] [%] | IC50 [5] [µg/mL] | Quotient of minimum denaturation concentration divided by IC50, Virus No. 1 [5] | IC50 [6] [µg/mL] | Quotient of minimum denaturation concentration divided by IC50, Virus No. 2 [6] | IC50 [7] [µg/mL] | Quotient of minimum denaturation concentration divided by IC50, Virus No. 3 [7] | IC50 [8] [µg/mL] | Quotient of minimum denaturation concentration divided by IC50, Virus No. 4 [8] | MCC at 48 h [9] [µg/mL] | MCC at 48 h [10] [µg/mL] | MCC at 48 h [11] [µg/mL] | further results
Nc1nc2c(ncn2COCCO)c(=O)[nH]1 [Acyclovir, reference compound] | 1.17 (≈ 5.2 µM) | > 855 | > 1000 |  |  |  |  |  |  |  |  |  |  |  |  |  | 
CCN1C(=O)NC(=O)C2(F)C1C(C)(C)C2(C)C (stereo not shown) [TI-62 Substance, 2-ethyl-6-fluoro-7,7,8,8-tetramethyl-2,4-diaza-bicyclo{4.3.0}octane-3,5-dione] | > 250 | < 2.00 | 500 | 9 (≈ 37.1 µM) | 34 | > 500 | < 2.00 | > 250 | < 1.00 | > 125 | < 2.00 | > 250 | < 1.00 | 250 | 250 | 1000 | 
CCN1C(=O)N(CC)C2C(C)(C)C(C)(C)C2(F)C1=O (stereo not shown) [TI-65 Substance, 2,4-diethyl-6-fluoro-7,7,8,8-tetramethyl-2,4-diaza-bicyclo{4.2.0}octane-3,5-dione] | 188 (≈ 695 µM) | 2.66 | 500 | 36 (≈ 133 µM) | 20 | 375 (≈ 1390 µM) | 2.67 | > 250 | < 1.00 | > 125 | < 2.00 | > 250 | < 1.00 | 250 | 250 | 1000 | 
CN1C(=O)NC2C(C)(C)C(C)(C)C2(F)C1=O (stereo not shown) [TI-61 Substance, 6-fluoro-4,7,7,8,8-pentamethyl-2,4-diaza-bicyclo{4.2.0}octane-3,5-dione] | 93.8 (≈ 411 µM) | 1.33 | 125 | 39 (≈ 171 µM) | 18 | 188 (≈ 824 µM) | 1.33 | > 125 | < 1.00 | 93.8 (≈ 411 µM) | 1.33 | > 125 | < 1.00 | 125 | 125 | 250 | 
CC1(C)O[C@@H]2[C@H](O1)[C@@H](CO)O[C@H]2N1C(=O)NC(=O)C2C1C(C)(C)C2(C)C (stereo partly drawn) [TI-28 Substance, 7,7,8,8-tetramethyl-2-(2',3'-isopropylidene-ribofuranosyl)-cis-2,4-diaza-bicyclo{4.2.0}octane-3,5-dione] | > 1000 | < 1.0 | > 1000 | 62.5 (≈ 170 µM) | 37 | 750 (≈ 2040 µM) | 1.33 | > 1000 |  | 1000 (≈ 2710 µM) | 1.0 | > 1000 |  | > 1000 | > 1000 | 1000 | 
NC12CC3CC(CC(C3)C1)C2 [Amantadine, reference compound] |  |  |  |  |  | 50 (≈ 331 µM) | 5.0 |  |  |  |  |  |  |  |  | 250 | 
CN1C(=O)[C@@H]2[C@H](N(C)C1=O)C(C)(C)C2(C)C (relative stereo) [TI-27 Substance, 2,4,7,7,8,8-hexamethyl-cis-2,4-diaza-bicyclo{4.2.0}octane-3,5-dione] | > 500 | < 1.0 | 500 | 35 (≈ 156 µM) | 51 | 188 (≈ 838 µM) | 5.32 | > 250 | < 1.0 | > 500 | < 1.0 | > 250 | < 1.0 | 250 | 250 | 1000 | Number of surviving mice/number of mice tested ([12]; 0.02 mg/mouse i.p.): 5/5; Number of surviving mice/number of mice tested ([12]; 0.078 mg/mouse i.p.): 5/5; Number of surviving mice/number of mice tested ([12]; 0.313 mg/mouse i.p.): 5/5; Number of surviving mice/number of mice tested ([12]; 1.25 mg/mouse i.p.): 1/5; Number of surviving mice/number of mice tested ([12]; 5 mg/mouse i.p.): 0/5
CCN1C(=O)[C@@H]2[C@H](N(CC)C1=O)C(C)(C)C2(C)C (relative stereo) [TI-16 Substance, 2,4-diethyl-7,7,8,8-tetramethyl-cis-2,4-diaza-bicyclo{4.2.0}octane-3,5-dione] | 375 (≈ 1490 µM) | 1.33 | 500 | 17 (≈ 67.4 µM) | 69 | 375 (≈ 1490 µM) | 2.67 | > 250 | < 1.0 | > 500 | < 1.0 | > 250 | < 1.0 | 250 | 500 | 1000 | 
CC1(C)C2N(Cc3ccccc3)C(=O)N(Cc3ccccc3)C(=O)C2(F)C1(C)C (stereo not shown) [TI-66 Substance, 2,4-dibenzyl-6-fluoro-7,7,8,8-tetramethyl-2,4-diaza-bicyclo{4.2.0}octane-3,5-dione] | > 100 | < 0.63 | 62.5 | 7 (≈ 17.7 µM) | 65 | > 200 | < 1.25 | > 25 | < 0.62 | 18.8 (≈ 47.7 µM) | 0.83 | > 25 | < 0.62 | 15.6 | 15.6 | 250 | 
